# Data published in PubChem BioAssay (NCI).
#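 How tested: cells in 96-well plates exposed to compound for 48 hours at five concentrations. GI50 = concentration required for 50% inhibition of growth. Definition used: TGI = concentration required for complete inhibition of growth.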
# Experiments:
# Assay in all cases: DTP human tumour cell line panel, 48 h
# [1] = tested on: A498 renal
# [2] = tested on: A549 NSCLC
# [3] = tested on: ACHN renal
# [4] = tested on: BT-549 breast
# [5] = tested on: CAKI-1 renal
# [6] = tested on: CCRF-CEM leukemia
# [7] = tested on: COLO 205 colon
# [8] = tested on: DU-145 prostate
# [9] = tested on: HCC-2998 colon
# [10] = tested on: HCT-116 colon
# [11] = tested on: HCT-15 colon
# [12] = tested on: HL-60(TB) leukemia
# [13] = tested on: HOP-62 NSCLC
# [14] = tested on: HOP-92 NSCLC
# [15] = tested on: HS 578T breast
# [16] = tested on: HT29 colon
# [17] = tested on: IGROV1 ovarian
# [18] = tested on: K-562 leukemia
# [19] = tested on: KM12 colon
# [20] = tested on: LOX IMVI melanoma
# [21] = tested on: M14 melanoma
# [22] = tested on: MALME-3M melanoma
# [23] = tested on: MCF7 breast
# [24] = tested on: MDA-MB-231 breast
# [25] = tested on: MDA-MB-435
# [26] = tested on: MOLT-4 leukemia
# [27] = tested on: NCI-H226 lung
# [28] = tested on: NCI-H23 lung
# [29] = tested on: NCI-H460 lung
# [30] = tested on: NCI-H522 lung
# [31] = tested on: NCI/ADR-RES ovarian
# [32] = tested on: OVCAR-3 ovarian
# [33] = tested on: OVCAR-4 ovarian
# [34] = tested on: OVCAR-5 ovarian
# [35] = tested on: OVCAR-8 ovarian
# [36] = tested on: PC-3 prostate
# [37] = tested on: RPMI-8226 leukemia
# [38] = tested on: RXF 393 renal
# [39] = tested on: SF-268 CNS
# [40] = tested on: SF-295 CNS
# [41] = tested on: SF-539 CNS
# [42] = tested on: SK-MEL-2 melanoma
# [43] = tested on: SK-MEL-28 melanoma
# [44] = tested on: SK-MEL-5 melanoma
# [45] = tested on: SK-OV-3 ovarian
# [46] = tested on: SN12C renal
# [47] = tested on: SNB-19 CNS
# [48] = tested on: SNB-75 CNS
# [49] = tested on: SR leukemia
# [50] = tested on: SW-620 colon
# [51] = tested on: T-47D breast
# [52] = tested on: TK-10 renal
# [53] = tested on: U251 CNS
# [54] = tested on: UACC-257 melanoma
# [55] = tested on: UACC-62 melanoma
# [56] = tested on: UO-31 renal
# [57] = tested on: 786-0 renal
# [58] = tested on: EKVX NSCLC
structure (smiles),measurement,setting,value
Cc1ccc2c(n1)C(=O)C(Cl)=C(Nc1ccc(C)c(C)c1)C2=O,GI50,[1],10600 nM
same,TGI,[1],25300 nM
same,GI50,[2],3370 nM
same,TGI,[2],17300 nM
same,GI50,[3],1680 nM
same,TGI,[3],3130 nM
same,GI50,[4],1410 nM
same,TGI,[4],2790 nM
same,GI50,[5],1590 nM
same,TGI,[5],3160 nM
same,GI50,[6],2460 nM
same,TGI,[6],6720 nM
same,GI50,[7],17200 nM
same,TGI,[7],44300 nM
same,GI50,[8],1720 nM
same,TGI,[8],3420 nM
same,GI50,[9],2120 nM
same,TGI,[9],4690 nM
same,GI50,[10],1150 nM
same,TGI,[10],2640 nM
same,GI50,[11],1120 nM
same,TGI,[11],2880 nM
same,GI50,[12],2270 nM
same,TGI,[12],5700 nM
same,GI50,[13],2490 nM
same,TGI,[13],11200 nM
same,GI50,[14],1980 nM
same,TGI,[14],4100 nM
same,GI50,[15],2260 nM
same,TGI,[15],6470 nM
same,GI50,[16],24700 nM
same,TGI,[16],> 100000 nM
same,GI50,[17],1850 nM
same,TGI,[17],4100 nM
same,GI50,[18],2040 nM
same,TGI,[18],> 100000 nM
same,GI50,[19],2960 nM
same,TGI,[19],> 100000 nM
same,GI50,[20],726 nM
same,TGI,[20],3420 nM
same,GI50,[21],1460 nM
same,TGI,[21],2960 nM
same,GI50,[22],2130 nM
same,TGI,[22],4220 nM
same,GI50,[23],1010 nM
same,TGI,[23],2910 nM
same,GI50,[24],1620 nM
same,TGI,[24],3810 nM
same,GI50,[25],1800 nM
same,TGI,[25],3760 nM
same,GI50,[26],1920 nM
same,TGI,[26],6590 nM
same,GI50,[27],1720 nM
same,TGI,[27],5920 nM
same,GI50,[28],1200 nM
same,TGI,[28],3950 nM
same,GI50,[29],2070 nM
same,TGI,[29],12000 nM
same,GI50,[30],2000 nM
same,TGI,[30],4900 nM
same,GI50,[31],2210 nM
same,TGI,[31],8260 nM
same,GI50,[32],590 nM
same,TGI,[32],1890 nM
same,GI50,[33],1360 nM
same,TGI,[33],2810 nM
same,GI50,[34],2230 nM
same,TGI,[34],4370 nM
same,GI50,[35],2270 nM
same,TGI,[35],6320 nM
same,GI50,[36],1690 nM
same,TGI,[36],12700 nM
same,GI50,[37],1540 nM
same,TGI,[37],4700 nM
same,GI50,[38],1500 nM
same,TGI,[38],2850 nM
same,GI50,[39],2200 nM
same,TGI,[39],6510 nM
same,GI50,[40],1740 nM
same,TGI,[40],3510 nM
same,GI50,[41],1770 nM
same,TGI,[41],3230 nM
same,GI50,[42],2540 nM
same,TGI,[42],6570 nM
same,GI50,[43],2070 nM
same,TGI,[43],4280 nM
same,GI50,[44],1380 nM
same,TGI,[44],2740 nM
same,GI50,[45],22000 nM
same,TGI,[45],> 100000 nM
same,GI50,[46],2020 nM
same,TGI,[46],5270 nM
same,GI50,[47],1590 nM
same,TGI,[47],4070 nM
same,GI50,[48],1730 nM
same,TGI,[48],3870 nM
same,GI50,[49],1530 nM
same,TGI,[49],5750 nM
same,GI50,[50],2070 nM
same,TGI,[50],4510 nM
same,GI50,[51],975 nM
same,TGI,[51],3220 nM
same,GI50,[52],7480 nM
same,TGI,[52],19700 nM
same,GI50,[53],1480 nM
same,TGI,[53],2960 nM
same,GI50,[54],1560 nM
same,TGI,[54],2980 nM
same,GI50,[55],1780 nM
same,TGI,[55],4360 nM
same,GI50,[56],1310 nM
same,TGI,[56],2710 nM
CN(C)S(=O)(=O)c1ccc(-c2nc(C(Cl)Cl)nc3cc(-c4ccc(F)cc4)nn23)cc1,GI50,[57],9420 nM
same,TGI,[57],> 100000 nM
same,GI50,[1],1760 nM
same,TGI,[1],8320 nM
same,GI50,[2],1880 nM
same,TGI,[2],5700 nM
same,GI50,[3],925 nM
same,TGI,[3],3610 nM
same,GI50,[4],2290 nM
same,TGI,[4],9990 nM
same,GI50,[5],1530 nM
same,TGI,[5],4710 nM
same,GI50,[6],1870 nM
same,TGI,[6],> 100000 nM
same,GI50,[7],1620 nM
same,TGI,[7],4230 nM
same,GI50,[8],1590 nM
same,TGI,[8],6270 nM
same,GI50,[58],1940 nM
same,TGI,[58],5000 nM
same,GI50,[9],1430 nM
same,TGI,[9],2920 nM
same,GI50,[10],986 nM
same,TGI,[10],3220 nM
same,GI50,[11],1130 nM
same,TGI,[11],5080 nM
same,GI50,[12],1300 nM
same,TGI,[12],> 100000 nM
same,GI50,[13],2080 nM
same,TGI,[13],8370 nM
same,GI50,[14],1790 nM
same,TGI,[14],5750 nM
same,GI50,[15],2630 nM
same,TGI,[15],7330 nM
same,GI50,[16],494 nM
same,TGI,[16],2150 nM
same,GI50,[17],1440 nM
same,TGI,[17],4650 nM
same,GI50,[18],929 nM
same,TGI,[18],> 100000 nM
same,GI50,[19],1560 nM
same,TGI,[19],4880 nM
same,GI50,[20],1150 nM
same,TGI,[20],6360 nM
same,GI50,[22],1860 nM
same,TGI,[22],4050 nM
same,GI50,[23],2460 nM
same,TGI,[23],> 100000 nM
same,GI50,[24],1750 nM
same,TGI,[24],6280 nM
same,GI50,[25],1320 nM
same,TGI,[25],3120 nM
same,GI50,[26],888 nM
same,TGI,[26],> 100000 nM
same,GI50,[27],2770 nM
same,TGI,[27],25600 nM
same,GI50,[28],1450 nM
same,TGI,[28],3400 nM
same,GI50,[29],1680 nM
same,TGI,[29],4320 nM
same,GI50,[31],1010 nM
same,TGI,[31],4660 nM
same,GI50,[32],1670 nM
same,TGI,[32],4010 nM
same,GI50,[33],2400 nM
same,TGI,[33],8140 nM
same,GI50,[34],2230 nM
same,TGI,[34],7890 nM
same,GI50,[35],1740 nM
same,TGI,[35],7580 nM
same,GI50,[36],2250 nM
same,TGI,[36],8560 nM
same,GI50,[38],1400 nM
same,TGI,[38],3870 nM
same,GI50,[39],2580 nM
same,TGI,[39],11100 nM
same,GI50,[40],1770 nM
same,TGI,[40],6660 nM
same,GI50,[41],2150 nM
same,TGI,[41],7550 nM
same,GI50,[42],2890 nM
same,TGI,[42],9350 nM
same,GI50,[43],2010 nM
same,TGI,[43],5400 nM
same,GI50,[44],1970 nM
same,TGI,[44],4220 nM
same,GI50,[45],2150 nM
same,TGI,[45],7790 nM
same,GI50,[46],2180 nM
same,TGI,[46],27700 nM
same,GI50,[47],2280 nM
same,TGI,[47],10900 nM
same,GI50,[48],5370 nM
same,TGI,[48],56400 nM
same,GI50,[49],320 nM
same,TGI,[49],> 100000 nM
same,GI50,[50],891 nM
same,TGI,[50],3310 nM
same,GI50,[51],3700 nM
same,TGI,[51],56900 nM
same,GI50,[52],3110 nM
same,TGI,[52],13100 nM
same,GI50,[53],1050 nM
same,TGI,[53],2980 nM
same,GI50,[54],3150 nM
same,TGI,[54],16600 nM
same,GI50,[55],1300 nM
same,TGI,[55],2940 nM
same,GI50,[56],2140 nM
same,TGI,[56],7260 nM
